Values joined by “and” are separate entries in the source; they are usually repeats but may differ in a detail not shown here. Identical values can stand only once.
Experiments:
[1] = Single-dose pharmacokinetics of T+Ai pellet implant (80 mg testosterone + 4 mg anastrozole, subcutaneous); conditions: for concentration at 1 h: 1 h post-dose; for concentration at 2 h: 2 h post-dose; for concentration at 4 h: 4 h post-dose; for concentration at 8 h: 8 h post-dose; for concentration at 12 h: 12 h post-dose; for concentration at 24 h: 24 h post-dose; for concentration at 72 h: 72 h post-dose; for concentration at 1680 h: 1680 h post-dose; for concentration at 2016 h: 2016 h post-dose
Description: The premenopausal women were aged between 35 and 55 years of age with a BMI range of 20-30 kg/m^2. […] The implant was intended to be left in situ and was expected to be almost completely absorbed within three months following insertion.
A total of 11 subjects were dosed with the implant and included in the safety analysis set. All 11 subjects were included in the pharmacokinetics (PK) analysis set.
(NB: the sample collection time point at 6 hours post-dose was added for the third and subsequent subject and so serum measurements were not determined for the first two subjects as noted below).
Patients seeking treatment with the T+Ai for reduction in high MBD were eligible for the study. Following successful screening, subjects attended the Wellend Health Clinic for dosing. The trial was designed to dose all subjects while in the luteal phase of their menstrual cycle to avoid the highly changing hormonal environment of the follicular phase. Following insertion of the implant, PK blood sampling was carried out for a duration of three months (see below). Briefly, samples were taken repeatedly on the day of dosing, daily during the first week, weekly for the next four weeks and every second week during the last eight weeks of a total sampling period of three months.
The sampling schedule was revised with the addition of one blood sample (at 6 hours post-dose as discussed above), and no adjustment of the timing of existing time points was made. The duration of sampling was not extended.
Following dosing on Day 1, blood samples were taken pre-dose (within one hour of dosing) and at 1, 2, 4, 6, 8 and 12 hours. Participants returned for a blood sample to be taken at 9 am in the morning on Days 2, 3, 4, 5, 8, 15, 22, 29, 43, 57, 71 and 85.

[2] = test system: AR/GATA3; conditions: Hosseinzadeh 2024; cited from earlier work
[3] = test system: 5α-reductase; conditions: increasing DHT in the breast, McNamara 2014; cited from earlier work
[4] = test system: human MYC; experiment: Western blot of MYC in breast cancer explants treated with DHT; assay type: cell-based; conditions: for MYC Western blot ratio to beta-Actin / MYC Western blot ratio to beta-Actin, average: 24 h
Description: (§1) To evaluate the effect of DHT on breast cancer tissue, 3 primary tumours were examined in the presence of a low anastrozole level of 5 nM employing a modification of the method described by Jankovic-Karasoulos T. et al., 2008.
(§2) The 3 explant invasive breast carcinomas were examined for expression of mTOR and c-Myc and response to exposure to DHT by Western blotting. […] The band density was measured by densitometry, using Image Master VDS and Image Quant Analysis Software (Amersham Pharmacia Biotech, Hong Kong). The relative protein levels of mTOR or MYC and b-actin in the original total protein lysate from the breast preparations were obtained. mTOR or MYC protein expression was normalized to beta-actin protein expression. Immunizing host antibodies were produced with a synthetic peptide derived from the sequence of human mTOR or MYC, purified by peptide affinity chromatography and confirmed using control peptides. The results of the Western blot analysis for mTOR or MYC proteins in the 3 explant samples at baseline and after 24 hours of culture are shown in Table 3 and Table 4 for mTOR or MYC respectively. Cell lysates were immunoblotted with antibodies to mTOR or MYC. The experiment was performed twice with similar results. Data are expressed relative to beta-actin.

[5] = test system: PCa cells; conditions: cited from earlier work
[6] = test system: human mTOR; experiment: Western blot of mTOR in breast cancer explants treated with DHT; assay type: cell-based; conditions: for mTOR Western blot ratio to beta-Actin, average: average of 3 patients; for mTOR Western blot ratio to beta-Actin, average / mTOR Western blot ratio to beta-Actin: 5 nM anastrozole, 24 h; for mTOR Western blot ratio to beta-Actin: individual patient
Description: as §1, §2

[7] = test system: aromatase; conditions: increasing DHT in the breast, Perel; cited from earlier work
[8] = test system: endogenous AR pathways / ER-mediated transcriptional activity; conditions: human explant tissue and breast cancer cell lines; cited from earlier work
[9] = test system: androgen receptor (AR); conditions: tumoural DHT from 1 nM up to 10 nM, Hickey 2021; cited from earlier work
[10] = test system: breast tissue; conditions: high dose androgen (testosterone), Raths 2023; cited from earlier work
[11] = test system: CRPC; conditions: with a CDK4/6 inhibitor, Han 2022; cited from earlier work
[12] = test system: breast; conditions: injected prior to breast cancer surgery; cited from earlier work
[13] = on the basis of the present results
[14] = human, in vivo, sc, 80 mg, Measured serum testosterone, GeoMean, geometric mean
[15] = human, in vivo, sc, 80 mg, Measured serum testosterone, mean
[16] = human, in vivo, sc, 80 mg, Measured serum testosterone, median

## C[C@]12CCC(=O)C[C@@H]1CC[C@@H]1[C@@H]2CC[C@]2(C)[C@@H](O)CC[C@@H]12 [DHT, 5α-dihydrotestosterone]
[1]; most samples
  serum DHT: not measurable in most samples
[2]
  AR/GATA3 binding: induces AR/GATA3 binding
[3]
  5α-reductase in breast tissue: up regulation of 5α-reductase
[4]; 0.1 nM DHT
  Myc expression in words: markedly elevated
  suppression of c-Myc: unable to suppress c-Myc
[4]; 0.1 nM DHT, individual patient, 5 nM anastrozole
  MYC Western blot ratio to beta-Actin: 1.01 and 1.23
[4]; 1 nM DHT
  Myc expression in words: barely discernable
[4]; 1 nM DHT, individual patient, 5 nM anastrozole
  MYC Western blot ratio to beta-Actin: 0.02 and 0.06
[4]; 10 nM DHT
  Myc expression in words: essentially not detected
[4]; 10 nM DHT, individual patient, 5 nM anastrozole
  MYC Western blot ratio to beta-Actin: 0.05 and 0.04
[4]; 0.0001 µM
  MYC Western blot ratio to beta-Actin: 0.39
  MYC Western blot ratio to beta-Actin, average: 1.01
[4]; 0.001 µM
  MYC Western blot ratio to beta-Actin: 0.04
  MYC Western blot ratio to beta-Actin, average: 0.04
[4]; 0.01 µM
  MYC Western blot ratio to beta-Actin: 0.03
  MYC Western blot ratio to beta-Actin, average: 0.04
[4]; intra-tumoural DHT from 1 to 10 nM
  suppression of c-Myc: results in suppression of c-Myc
[4]; [13]
  DHT concentration required for suppression of cMyc: at least 1 nM
[5]; elevated DHT levels
  c-Myc expression associated with AR dimer: reduction in c-Myc expression
[5]; low level DHT
  mTOR activity associated with AR monomer: elevated mTOR activity
[6]; 0.1 nM DHT
  mTOR expression in words: markedly elevated
  mTOR Western blot ratio to beta-Actin, average: 1.01
  mTOR Western blot ratio to beta-Actin: 0.81 and 1.01 and 1.23
[6]; 1 nM DHT
  mTOR expression in words: barely discernable
  mTOR Western blot ratio to beta-Actin, average: 0.04
  mTOR Western blot ratio to beta-Actin: 0.04 and 0.02 and 0.06
[6]; 10 nM DHT
  mTOR expression in words: essentially not detected
  mTOR Western blot ratio to beta-Actin, average: 0.04
  mTOR Western blot ratio to beta-Actin: 0.03 and 0.05 and 0.04
[6]; [13]
  DHT concentration required to inhibit induction of mTOR activity: at least 1 nM
[7]
  aromatase in breast tissue: down regulation of aromatase
[8]
  ER-mediated transcriptional activity: can activate endogenous AR pathways to inhibit ER-mediated transcriptional activity
[9]
  AR tumour suppressor induction: can induce androgen receptor (AR) to become a tumour suppressor of estrogen receptor (ER) positive breast cancer

## C[C@]12CC[C@H]3[C@@H](CCC4=CC(=O)CC[C@@]43C)[C@@H]1CC[C@@H]2O [Testosterone, testosterone]
[1]; 12 weeks post-dose, 120960 min
  average serum testosterone concentration at 12 weeks: 0.8 ng/mL
[1]; all subjects, 12 weeks
  increase in serum testosterone compared with baseline: sustained in all subjects at 12 weeks
[1]; baseline, before implant
  average serum testosterone at baseline: 0.2 ng/mL
[1]; geometric mean, pre-dose
  Measured serum testosterone, GeoMean: 0.19 ng/mL
[1]; human, in vivo, sc, 80 mg
  Tmax: 6 to 12 h
[1]; [14]
  concentration at 1 h: 0.49 ng/mL
  concentration at 2 h: 0.6 ng/mL
  concentration at 4 h: 0.94 ng/mL
  concentration at 8 h: 3.29 ng/mL
  concentration at 12 h: 3.36 ng/mL
  concentration at 24 h: 2.39 ng/mL
  concentration at 72 h: 1.63 ng/mL
  concentration at 1680 h: 0.99 ng/mL
[1]; human, in vivo, sc, 80 mg, Measured serum testosterone, GeoMean, geometric mean, 6 h post-dose
  concentration at 6 h: 2.53 ng/mL
[1]; human, in vivo, sc, 80 mg, Measured serum testosterone, individual subject
  concentration at 1680 h: 0.791 ng/mL
[1]; [15]
  concentration at 1 h: 0.55 ng/mL
  concentration at 2 h: 0.73 ng/mL
  concentration at 4 h: 1.43 ng/mL
  concentration at 8 h: 3.55 ng/mL
  concentration at 12 h: 3.43 ng/mL
  concentration at 24 h: 2.45 ng/mL
  concentration at 72 h: 1.73 ng/mL
  concentration at 1680 h: 1 ng/mL
  concentration at 2016 h: 0.83 ng/mL
[1]; human, in vivo, sc, 80 mg, Measured serum testosterone, mean, 48 h post-dose
  concentration at 48 h: 1.83 ng/mL
[1]; human, in vivo, sc, 80 mg, Measured serum testosterone, mean, 168 h post-dose
  concentration at 168 h: 1.53 ng/mL
[1]; human, in vivo, sc, 80 mg, Measured serum testosterone, mean, 504 h post-dose
  concentration at 504 h: 2.26 ng/mL
[1]; human, in vivo, sc, 80 mg, Measured serum testosterone, mean, 1344 h post-dose
  concentration at 1344 h: 1.25 ng/mL
[1]; [16]
  concentration at 1 h: 0.47 ng/mL
  concentration at 2 h: 0.51 ng/mL
  concentration at 4 h: 0.92 ng/mL
  concentration at 1680 h: 1 ng/mL
  concentration at 2016 h: 0.85 ng/mL
[1]; human, in vivo, sc, 80 mg, Measured serum testosterone, median, 1008 h post-dose
  concentration at 1008 h: 1.4 ng/mL
[1]; mean, pre-dose
  Measured serum testosterone, mean: 0.21 ng/mL
[1]; median, pre-dose
  Measured serum testosterone, median: 0.19 ng/mL
[1]; serum
  average Cmax, serum testosterone: 4.1 ng/mL
[1]; serum, post-dose
  median Tmax for serum testosterone: 8 h
[10]
  breast ductal structures: breast ductal structures shrunk
[11]
  efficacy of high-testosterone treatment with CDK4/6 inhibitor: enhanced by a CDK4/6 inhibitor

## C[C@]12CCC(=O)C[C@@H]1CC[C@@H]1[C@@H]2CC[C@]2(C)[C@@H](O)CC[C@@H]12 [radioactive DHT]
[12]
  accumulation of radioactive DHT: initially accumulated in the fat of the breast then strongly accumulated in the malignancy

Reference: patent US20260315494A1, “TREATMENT OF BREAST TISSUE” (Havah Therapeutics Pty Ltd, priority 2023, published 2026)
